# Square brackets hold non-standard residues; d marks the D form. Peptide text beside a SMILES is read from it. Dip = N[C@H](C(=O)O)C(c1ccccc1)c1ccccc1; 2Nal = N[C@@H](Cc1ccc2ccccc2c1)C(=O)O
# Columns and labels:
# [1] = system: Staphylococcus aureus; test: Antibacterial activity against methicillin resistant Staphylococcus aureus ATCC BAA-1556 incubated for 24 hrs by microtiter plate method; type: functional; details: Staphylococcus aureus, ATCC BAA-1556, 24 h, read-out: MIC
# [2] = system: Escherichia coli; test: Antibacterial activity against Escherichia coli ATCC 25922 incubated for 24 hrs by microtiter plate method; type: functional; details: Escherichia coli, ATCC 25922, 24 h, read-out: MIC
# [3] = Hemolytic activity in human RBC assessed as hemolysis incubated for 2 hrs by spectrophotometer analysis; type: toxicity, cell-based, Erythrocyte; details: human red blood cells (erythrocytes)
# [4] = system: Staphylococcus aureus; test: Antibacterial activity against Staphylococcus aureus ATCC 29213 incubated for 24 hrs by microtiter plate method; type: functional; details: Staphylococcus aureus, ATCC 29213, read-out: MIC
# [5] = system: Pseudomonas aeruginosa; test: Antibacterial activity against Pseudomonas aeruginosa ATCC 27883 incubated for 24 hrs by microtiter plate method; type: functional; details: Pseudomonas aeruginosa, ATCC 27883, 24 h, read-out: MIC
SMILES,MIC [1] [µg/mL],MIC [2] [µg/mL],HC50 at 2 h [3] [µg/mL],MIC [4] [µg/mL],MIC [5] [µg/mL]
N=C(N)NCCC[C@@H]1NC(=O)[C@H](CCCNC(=N)N)NC(=O)[C@H](CCCNC(=N)N)NC(=O)[C@H](C(c2ccccc2)c2ccccc2)NC(=O)[C@H](C(c2ccccc2)c2ccccc2)NC(=O)[C@H](C(c2ccccc2)c2ccccc2)NC(=O)[C@H](CCCNC(=N)N)NC(=O)[C@H](CCCNC(=N)N)NC1=O (cyclo([Dip][Dip][Dip]RRRRR)),6.2,25,100,6.2,25
NCCCC[C@H](NC(=O)[C@H](CCCCN)NC(=O)[C@H](CCCCN)NC(=O)[C@@H](N)CCCCN)C(=O)N[C@@H](CCCCN)C(=O)N[C@H](C(=O)N[C@H](C(=O)N[C@H](C(=O)O)C(c1ccccc1)c1ccccc1)C(c1ccccc1)c1ccccc1)C(c1ccccc1)c1ccccc1 (H-KKKKK[Dip][Dip][Dip]-OH),50,> 100,280,50,> 100
N=C(N)NCCC[C@@H]1NC(=O)[C@H](CCCNC(=N)N)NC(=O)[C@H](Cc2ccc3ccccc3c2)NC(=O)[C@H](Cc2ccc3ccccc3c2)NC(=O)[C@H](Cc2ccc3ccccc3c2)NC(=O)[C@H](CCCNC(=N)N)NC1=O (cyclo([2Nal][2Nal][2Nal]RRR)),6.2,25,50,3.1,50
N=C(N)NCCC[C@H](NC(=O)[C@H](CCCNC(=N)N)NC(=O)[C@H](CCCNC(=N)N)NC(=O)[C@@H](N)CCCNC(=N)N)C(=O)N[C@@H](Cc1ccc2ccccc2c1)C(=O)N[C@@H](Cc1ccc2ccccc2c1)C(=O)O (H-RRRR[2Nal][2Nal]-OH),6.2,50,180,6.2,> 100
NCCCC[C@H](NC(=O)[C@H](CCCCN)NC(=O)[C@@H](N)CCCCN)C(=O)N[C@@H](CCCCN)C(=O)N[C@H](C(=O)N[C@H](C(=O)N[C@H](C(=O)O)C(c1ccccc1)c1ccccc1)C(c1ccccc1)c1ccccc1)C(c1ccccc1)c1ccccc1 (H-KKKK[Dip][Dip][Dip]-OH),25,> 100,255,25,> 100
N=C(N)NCCC[C@H](NC(=O)[C@H](CCCNC(=N)N)NC(=O)[C@@H](NC(=O)[C@@H](NC(=O)[C@H](CCCNC(=N)N)NC(=O)[C@@H](N)CCCNC(=N)N)C(c1ccccc1)c1ccccc1)C(c1ccccc1)c1ccccc1)C(=O)N[C@H](C(=O)O)C(c1ccccc1)c1ccccc1 (H-RR[Dip][Dip]RR[Dip]-OH),12.5,25,240,12.5,25
NCCCC[C@@H]1NC(=O)[C@H](CCCCN)NC(=O)[C@H](CCCCN)NC(=O)[C@H](C(c2ccccc2)c2ccccc2)NC(=O)[C@H](C(c2ccccc2)c2ccccc2)NC(=O)[C@H](C(c2ccccc2)c2ccccc2)NC(=O)[C@H](CCCCN)NC(=O)[C@H](CCCCN)NC1=O (cyclo([Dip][Dip][Dip]KKKKK)),12.5,50,180,6.2,> 100
N=C(N)NCCC[C@H](NC(=O)[C@H](Cc1ccc2ccccc2c1)NC(=O)[C@H](Cc1ccc2ccccc2c1)NC(=O)[C@H](CCCNC(=N)N)NC(=O)[C@H](CCCNC(=N)N)NC(=O)[C@H](Cc1ccc2ccccc2c1)NC(=O)[C@@H](N)CCCNC(=N)N)C(=O)O (H-R[2Nal]RR[2Nal][2Nal]R-OH),25,25,205,12.5,50
N=C(N)NCCC[C@H](NC(=O)[C@H](CCCNC(=N)N)NC(=O)[C@H](Cc1ccc2ccccc2c1)NC(=O)[C@H](Cc1ccc2ccccc2c1)NC(=O)[C@H](CCCNC(=N)N)NC(=O)[C@@H](N)CCCNC(=N)N)C(=O)N[C@@H](Cc1ccc2ccccc2c1)C(=O)O (H-RR[2Nal][2Nal]RR[2Nal]-OH),25,25,195,12.5,25
